Experimental data as given in patent publication US5126373A, “Composition for parenteral and oral nutrition” (priority 1987, dated 1992).

Legend:
[1] = system: [NADH]/[NAD^+ ]; conditions: inhibition of gluconeogenesis and alcoholic hypoglycemia; cited from earlier work
[2] = system: alloxan-diabetic rats; conditions: cited from earlier work
[3] = Preliminary results with 1,3-pentanediol and its esters; conditions: liver
[4] = cited from earlier work
[5] = system: ethanol withdrawal syndrome; conditions: rats; cited from earlier work
[6] = Volume of distribution of butanediol; format: in vivo
Text: In other experiments, the volume of distribution of butanediol is equal to 2/3 of the body wt, i.e. total body water.

[7] = Noted metabolism of esters compared with butanediol alone; format: in vivo; conditions: compared with physiological oxido-reduction ratio
[8] = system: mitochondrial [NADH]/[NAD^+ ]; experiment: Redox parameters in blood of pigs; format: in vivo, pig; conditions: reflects the mitochondrial [NADH]/[NAD^+ ]
Text: (§1) The pigs were given equicaloric amount of either:

[9] = RS-butanediol concentration in blood of pigs; format: in vivo, pig
Text: as §1

[10] = system: ketone bodies (R-3-hydroxybutyrate+S-3-hydroxybutyrate+acetoacetate); experiment: Total ketone body concentrations in pigs; format: in vivo, pig
Procedure: as §1
The total concentration of physiological and unphysiological ketone bodies (R-3-hydroxybutyrate+S-3-hydroxybutyrate+acetoacetate) never exceeded 0.8 mM in the animal receiving RS-butanediol by the continuous intravenous route. […] Therefore, there was no marked acidosis in any of the groups.

[11] = Blood glucose levels in unanesthetized young pigs; format: in vivo, pig; conditions: intravenous infusion 3 h or intragastric bolus
Text: as §1

[12] = system: mammalian cells; conditions: cited from earlier work

## CCO [ethanol]
[1]
  redox shift: an increase in [NADH]/[NAD^+ ]

## C[C@H](O)CCO [L-1,3-butanediol]
[2]; alloxan-diabetic rats
  blood glucose level: useful in reducing the blood glucose level

## CCC(O)CCO (racemic) [RS-1,3-pentanediol]
[3]
  gluconeogenic and ketogenic substrate: is a gluconeogenic and a ketogenic substrate

## CC(O)CCO (racemic) [RS-butanediol, 1,3-butanediol]
[4]; diet containing 5%, humans
  adverse effect: no adverse effect
  nitrogen sparing: nitrogen was spared
[4]; via alcohol and aldehyde dehydrogenase
  metabolism in the liver: metabolised in the liver to DL-3-hydroxybutyrate
[5]
  effect on ethanol withdrawal syndrome: alleviates the ethanol withdrawal syndrome in rats
[6]; butanediol liberated in blood from plasma esterases
  osmotic effect: does not exert any osmotic effect
[6]; compared with a tracer of water
  rate of distribution into total body water: at the same rate as a tracer of water
[6]; i.e. total body water
  volume of distribution: 2/3
[7]
  3-hydroxybutyrate and acetoacetate ratio after metabolism in the liver: more reduced than physiological
[8]
  [R-3-hydroxybutyrate]/[acetoacetate] ratio: increased
[9]; after intragastric bolus
  linear decrease of butanediol concentration in blood, time: 4 h
[9]; pig, blood, constant intravenous infusion for 3 h, 25% of hourly caloric requirement, read-out: RS-butanediol (free butanediol) concentration
  concentration at 3 h: 600 µM
[9]; pig, blood, intragastric bolus, 15% of daily caloric requirements, read-out: concentration of butanediol in the blood, peak
  Cmax: 25000 µM
[10]; continuous intravenous infusion
  total concentration of ketone bodies: ≤ 0.8 mM
[10]; intragastric bolus
  total ketone body concentration: about 1.5 mM
[11]
  Glucose levels / hypoglycemic effect: do not exert a hypoglycemic effect

## C[C@H](O)CC(=O)O [L-β-hydroxybutyrate]
[2]; test not stated
  antidiabetic properties: has demonstrated interesting antidiabetic properties
[12]
  use by mammalian cells: very well used by mammalian cells
